Patent US20260250290A1 (BRISTOL-MYERS SQUIBB COMPANY, priority 2023, published 2026)
pIC50: −log10 of the molar value.

The molecules below were run against T1, full length SGK1 (Homo sapiens, UniProt O00141) (assay: SGK1 inhibition Assay A (Caliper LabChip electrophoretic separation of fluorescent peptide substrate and phosphorylated product)). Conditions: Assay A; 20 μM ATP, 40 min incubation; read-out: SGK1 IC50.
T1 construct: 125 μM full length SGK1 (Life Technologies Part #PR7358A); purchased Life Technologies PR7358A
T1 sequence (O00141 1-431): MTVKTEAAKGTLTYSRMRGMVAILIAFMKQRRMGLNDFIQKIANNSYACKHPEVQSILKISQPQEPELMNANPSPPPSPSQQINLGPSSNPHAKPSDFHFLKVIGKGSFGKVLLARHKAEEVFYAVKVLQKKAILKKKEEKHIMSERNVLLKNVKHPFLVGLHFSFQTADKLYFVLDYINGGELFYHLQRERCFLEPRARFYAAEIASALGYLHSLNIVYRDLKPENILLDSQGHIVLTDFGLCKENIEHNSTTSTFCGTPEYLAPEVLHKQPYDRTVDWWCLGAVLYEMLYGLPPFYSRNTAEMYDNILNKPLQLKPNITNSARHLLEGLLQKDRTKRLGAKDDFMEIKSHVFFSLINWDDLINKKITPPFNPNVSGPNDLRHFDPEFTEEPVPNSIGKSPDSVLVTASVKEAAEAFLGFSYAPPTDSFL
Assay type: biochemical

Question: With `CC(=O)N1CC=C(c2cc(N3CCC[C@@H](NC(=O)c4sc(Cl)cc4OC4CC5CC4CN5)C3)c3c(N)ncnn23)C1` (stereo partly drawn) [Example 606, 3-((2-azabicyclo[2.2.1]heptan-5-yl)oxy)-N-((R)-1-(7-(1-acetyl-2,5-dihydro-1H-pyrrol-3-y1)-4-aminopyrrolo[2,1-f][1,2,4]triazin-5~yl)piperidin-3-y1)-5-chlorothiophene-2-carboxamide] as the molecule, how does the pIC50 read?
Answer: 8.05

Question: With `CC(=O)N1CC=C(c2cc(N3CCC[C@@H](NC(=O)c4sc(Cl)cc4O[C@@H]4C[C@H]5CC[C@@H](C4)N5C)C3)c3c(N)ncnn23)C1` [Example 612, N—((R)-1-(7-(1-acetyl-2,5-dihydro-1H-pyrrol-3-yl)-4-aminopyrrolo[2,1-f][1,2,4]triazin-5-yl)piperidin-3-yl)-5-chloro-3-((8-methyl-8-azabicyclo[3.2.1]octan-3-yl)oxy)thiophene-2-carboxamide] as the molecule, how does the pIC50 read?
Answer: 9.22

Question: With `COC(=O)N1CC=C(c2cc(N3CCC[C@@H](NC(=O)c4sc(Cl)cc4O[C@@H]4C[C@H]5CC[C@@H](C4)N5C)C3)c3c(N)ncnn23)C1` [Example 613, methyl 3-(4-amino-5-((R)-3-(5-chloro-3-(((1R,3s,5S)-8-methyl-8-azabicyclo[3.2.1]octan-3-yl)oxy)thiophene-2-carboxamido)piperidin-1-yl)pyrrolo[2,1-f][1,2,4]triazin-7-yl)-2,5-dihydro-1H-pyrrole-1-carboxylate] as the molecule, how does the pIC50 read?
Answer: 8.52

Question: With `CN1[C@@H]2CC[C@H]1C[C@H](Oc1cc(Cl)sc1C(=O)N[C@@H]1CCCN(c3cc(-c4cncnc4)n4ncnc(N)c34)C1)C2` [Example 614, N—((R)-1-(4-amino-7-(pyrimidin-5-yl)pyrrolo[2,1-f][1,2,4]triazin-5-yl)piperidin-3-yl)-5-chloro-3-((8-methyl-8-azabicyclo[3.2.1]octan-3-yl)oxy)thiophene-2-carboxamide] as the molecule, how does the pIC50 read?
Answer: 8.52

Question: `CC(=O)N1CC=C(c2cc(N3CCC[C@@H](NC(=O)c4sc(Cl)cc4OC4CCN(C5CC5)CC4)C3)c3c(N)ncnn23)C1` [Example 615, (R)—N-(1-(7-(1-acetyl-2,5-dihydro-1H-pyrrol-3-yl)-4-aminopyrrolo[2,1-f][1,2,4]triazin-5-yl)piperidin-3-yl)-5-chloro-3-((1-cyclopropylpiperidin-4-yl)oxy)thiophene-2-carboxamide] was tested. Which pIC50 did it give?
Answer: 7.30

Question: How did the pIC50 turn out when `COC(=O)N1CC=C(c2cc(N3CCC[C@@H](NC(=O)c4sc(Cl)cc4OC4CCN(C5CC5)CC4)C3)c3c(N)ncnn23)C1` [Example 616, methyl (R)-3-(4-amino-5-(3-(5-chloro-3-((1-cyclopropylpiperidin-4-yl)oxy)thiophene-2-carboxamido)piperidin-1-yl)pyrrolo[2,1-f][1,2,4]triazin-7-yl)-2,5-dihydro-1H-pyrrole-1-carboxylate] was run?
Answer: 8.22

Question: With `Nc1ncnn2c(-c3cncnc3)cc(N3CCC[C@@H](NC(=O)c4sc(Cl)cc4OC4CCN(C5CC5)CC4)C3)c12` [Example 617, (R)-N-(1-(4-amino-7-(pyrimidin-5-y1)pyrrolo[2,1-f][1,2,4]triazin-5-yl)piperidin-3-y1)-5-chloro-3-((1-cyclopropylpiperidin-4-yl)oxy)thiophene-2-carboxamide] as the molecule, how does the pIC50 read?
Answer: 7.62

Question: How did the pIC50 turn out when `CC(=O)N1CC=C(c2cc(N3CCC[C@@H](NC(=O)c4sc(Cl)cc4OC4CCN(CC(C)(C)O)CC4)C3)c3c(N)ncnn23)C1` [Example 618, (R)—N-(1-(7-(1-acetyl-2,5-dihydro-1H-pyrrol-3-yl)-4-aminopyrrolo[2,1-f][1,2,4]triazin-5-yl)piperidin-3-yl)-5-chloro-3-((1-(2-hydroxy-2-methylpropyl)piperidin-4-yl)oxy)thiophene-2-carboxamide] was run?
Answer: 8.05

Question: With `COC(=O)N1CC=C(c2cc(N3CCC[C@@H](NC(=O)c4sc(Cl)cc4OC4CCN(CC(C)(C)O)CC4)C3)c3c(N)ncnn23)C1` [Example 619, Methyl (R)-3-(4-amino-5-(3-(5-chloro-3-((1-(2-hydroxy-2-methylpropyl)piperidin-4-yl)oxy)thiophene-2-carboxamido)piperidin-1-yl)pyrrolo[2,1-f][1,2,4]triazin-7-yl)-2,5-dihydro-1H-pyrrole-1-carboxylate] as the molecule, how does the pIC50 read?
Answer: 7.96

Question: How did the pIC50 turn out when `COC(=O)N1CC=C(c2cc(N3CCC[C@@H](NC(=O)c4sc(Cl)cc4OC4CCNC(C)C4)C3)c3c(N)ncnn23)C1` (stereo partly drawn) [Example 624, Methyl 3-(4-amino-5-((3R)-3-(5-chloro-3-((2-methylpiperidin-4-yl)oxy)thiophene-2-carboxamido)piperidin-1-yl)pyrrolo[2,1-f][1,2,4]triazin-7-y1)-2,5-dihydro-1H-pyrrole-1-carboxylate] was run?
Answer: 8.15

Question: How did the pIC50 turn out when `CC(C)N1CC2(CC(Oc3cc(Cl)sc3C(=O)N[C@@H]3CCCN(c4cc(-c5ccc(C#N)c(F)c5)n5ncnc(N)c45)C3)C2)C1` [Example 631, (R)—N-(1-(4-amino-7-(4-cyano-3-fluorophenyl)pyrrolo[2,1-f][1,2,4]triazin-5-yl)piperidin-3-yl)-5-chloro-3-((2-isopropyl-2-azaspiro[3.3]heptan-6-yl)oxy)thiophene-2-carboxamide] was run?
Answer: 8.52

Question: `Nc1ncnn2c(-c3ccnc(C(F)F)c3)cc(N3CCC[C@@H](NC(=O)c4sc(Cl)cc4OC4CNC4)C3)c12` [Example 632, (R)-N-(1-(4-amino-7-(2-(difluoromethyl)pyridin-4-yl)pyrrolo[2,1-f][1,2,4]triazin-5-y1)piperidin-3-y1)-3-(azetidin-3-yloxy)-5-chlorothiophene-2-carboxamide] was tested. Which pIC50 did it give?
Answer: 8.10

Question: With `CC(=O)N1CC=C(c2cc(N3CCC[C@@H](NC(=O)c4sc(Cl)cc4OC4CNC4)C3)c3c(N)ncnn23)C1` [Example 633, (R)-N-(1-(7-(1-acetyl-2,5-dihydro-1H-pyrrol-3-yl)-4-aminopyrrolo[2,1-f][1,2,4]triazin-5-yl)piperidin-3-yl)-3-(azetidin-3-yloxy)-5-chlorothiophene-2-carboxamide] as the molecule, how does the pIC50 read?
Answer: 8.22

Question: With `COC(=O)N1CC=C(c2cc(N3CCC[C@@H](NC(=O)c4sc(Cl)cc4OCC4CNC4)C3)c3c(N)ncnn23)C1` [Example 634, Methyl (R)-3-(4-amino-5-(3-(3-(azetidin-3~ylmethoxy)-5-chlorothiophene-2-carboxamido)piperidin-1-y1)pyrrolo[2,1-f][1,2,4]triazin-7-y1)-2,5-dihydro-\H-pyrrole-1-carboxylate] as the molecule, how does the pIC50 read?
Answer: 7.74

Question: With `N#Cc1ccc(-c2cc(N3CCC[C@@H](NC(=O)c4sc(Cl)cc4OCC4CNC4)C3)c3c(N)ncnn23)cn1` [Example 635] as the molecule, how does the pIC50 read?
Answer: 8.15

Question: With `CC(=O)N1CC=C(c2cc(N3CCC[C@@H](NC(=O)c4sc(Cl)cc4OC4CCNC4)C3)c3c(N)ncnn23)C1` (stereo partly drawn) [Example 636, N-((R)-1-(7-(1-acetyl-2,5-dihydro-1H-pyrrol-3-yl)-4-aminopyrrolo[2,1-f][1,2,4]triazin-5-yl)piperidin-3-y1)-5-chloro-3-(pyrrolidin-3-yloxy)thiophene-2-carboxamide] as the molecule, how does the pIC50 read?
Answer: 8.30

Question: With `N#Cc1ccc(-c2cc(N3CCC[C@@H](NC(=O)c4sc(Cl)cc4OC4CCNC4)C3)c3c(N)ncnn23)cn1` (stereo partly drawn) [Example 637, N-((R)-1-(4-amino-7-(6-cyanopyridin-3-yl)pyrrolo[2,1-f][1,2,4]triazin-5-yl)piperidin-3-y1)-5-chloro-3-(pyrrolidin-3-yloxy)thiophene-2-carboxamide] as the molecule, how does the pIC50 read?
Answer: 7.92

Question: `CC(=O)N1CC=C(c2cc(N3CCC[C@@H](NC(=O)c4sc(Cl)cc4OCC4CCNCC4)C3)c3c(N)ncnn23)C1` [Example 640, (R)-N-(1-(7-(1-acetyl-2,5-dihydro-1H-pyrrol-3-yl)-4-aminopyrrolo[2,1-f][1,2,4]triazin-5-y1)piperidin-3-y1)-5-chloro-3-(piperidin-4-ylmethoxy)thiophene~2-carboxamide] was tested. Which pIC50 did it give?
Answer: 8.10

Question: How did the pIC50 turn out when `N#Cc1ccc(-c2cc(N3CCC[C@@H](NC(=O)c4sc(Cl)cc4OCC4CCNCC4)C3)c3c(N)ncnn23)cn1` [Example 641, (R)-N-(1-(4-amino-7-(6~cyanopyridin-3-y1)pyrrolo[2,1-f][1,2,4]triazin-5-y1)piperidin-3-yl)-5-chloro-3-(piperidin-4-ylmethoxy)thiophene-2-carboxamide] was run?
Answer: 9.05

Question: With `NC(=O)c1ccc(-c2cc(N3CCC[C@@H](NC(=O)c4sc(Cl)cc4OCC4CCNCC4)C3)c3c(N)ncnn23)cc1F` [Example 642, (R)-N-(1-(4-amino-7-(4-carbamoyl-3-fluorophenyl)pyrrolo[2,1-f][1,2,4]triazin-5-y1)piperidin-3-y1)-5-chloro-3-(piperidin-4-ylmethoxy)thiophene-2-carboxamide] as the molecule, how does the pIC50 read?
Answer: 8.40

Question: `CN1CCC(COc2cc(Cl)sc2C(=O)N[C@@H]2CCCN(c3cc(-c4cncnc4)n4ncnc(N)c34)C2)CC1` [Example 643, (R)-N-(1-(4-amino-7-(pyrimidin-5-yl)pyrrolo[2,1-f][1,2,4]triazin-5-y1)piperidin-3-y1)-5-chloro-3-((1-methylpiperidin-4-yl)methoxy)thiophene-2-carboxamide] was tested. Which pIC50 did it give?
Answer: 8.10

Question: `NC(=O)c1ccc(-c2cc(N3CCC[C@@H](NC(=O)c4sc(Cl)cc4OCC4CCNCC4)C3)c3c(N)ncnn23)cn1` [Example 644, (R)-5-(4-amino-5-(3-(5-chloro-3-(piperidin-4-ylmethoxy)thiophene-2-carboxamido)piperidin-1-y1)pyrrolo[2,1-f][1,2,4]triazin-7-y1)picolinamide] was tested. Which pIC50 did it give?
Answer: 9.40

Question: With `Nc1ncnn2c(-c3ccnc(C(F)F)c3)cc(N3CCC[C@@H](NC(=O)c4cc5ccccc5s4)C3)c12` [Example 645, (R)-N-(1-(4-amino-7-(2-(difluoromethyl)pyridin-4-y1)pyrrolo[2,1-f][1,2,4]triazin-5-y1)piperidin-3-yl)benzo[b]thiophene-2-carboxamide] as the molecule, how does the pIC50 read?
Answer: 8.40
